The target in series [1] is T1, Recombinant PP1 (human PP1α residues 7–300) (Homo sapiens, UniProt P62136).
T1 construct: human PP1α (residues 7–300); His; made in house; host or cells: BL21 (DE3) Escherichia coli, co-expressed with GroEL/GroES chaperones
The experiment in a line: Surface plasmon resonance direct binding to immobilized PP1. To be noted: SPR; for PP1 WT KD (M): 1:1 binding model, 25°C. On the procedure:
PP1 was purified as previously described. BL21 (DE3) Escherichia coli cells (Invitrogen, Carlsbad, CA, USA) were -transformed with a vector expressing human PP1α (residues 7–300) and pGR07, which expresses GroEL/[…] chaperones (both gifts from Dr Mathieu Bollen and Monique Beullens, KU Leuven, Belgium). The cells were grown in media supplemented with 1 mM MnCl2 at 30°C to an A600 =0.5. Arabinose (2 g per L) was added to induce expression of the GroEL/GroES chaperones. When A600 =1 was reached, the cells were transferred to 10°C and PP1 expression was induced with 0.1 mM Isopropyl β-D-1-thiogalactopyranoside for 20 hrs. Harvested cells were lysed using sonication in a solution containing in 50 mM Tris-HCl (pH 8.0), 5 mM imidazole, 700 mM NaCl, 1 mM MnCl2, 0.1% Triton X-100 (v/v) and protease inhibitors. His-tagged PP1 was purified using a Ni-NTA IMAC column (Qiagen, Valencia, CA, USA). Purified PP1 was dialyzed and stored at −70°C in 50 mM Tris-HCl (pH 8.0), 5 mM imidazole, 700 mM NaCl and 1 mM MnCl2. PP1 activity was then assayed as previously described.
The SPR measurements were conducted on Biacore T200 instrument (GE Healthcare, Piscataway, NJ) at 25°C. Recombinant PP1 was immobilized on a CM5 chip by amine coupling (GE Healthcare). PP1 (200 nM) was captured on flow cell 2 in 10 mM acetate buffer, pH 5.0, supplemented with 2 mM MnCl2. […] Flow cell 1 was used as a reference surface to subtract background signal. Also injections of the buffer alone were used to provide double reference subtraction. […] For binding and kinetics experiments, all compounds were diluted in the running buffer, at 40 μM, 20 μM, 10 μM, 5 μM, 2.5 μM, 1.25 μM and 0 μM and then passed over the two flow cells at a flow rate of 100 μl/min for 60 sec. The number of response units was recorded after the subtraction of the reference flow cell's value (Fc2-1). Two repetitions were performed for each injection. Data were analyzed using the BiaEvaluation software of Biacore with a 1:1 binding model. […] All the small molecular weight compounds were used at 1 μM.
(In general: Surface plasmon resonance follows binding to a sensor surface in real time, without labels.)

The nature of series [2]: Pharmacokinetic analysis in mice after i.p. injection. Format: in vivo. The following applies: male, BALB/cJ, ip, mouse plasma after i.p. 100 mg/kg DP1-07; for AUC(0-t) / MRT last / half-life / Tmax: parent and products DP1-07P1, DP1-07P2; for Cmax: parent and products DP1-07P1, DP1-07P2 (quantified with DP1 and DP3 calibration curves); for Tmax: mouse, plasma, 100 mg/kg. On the procedure:
The animal facilities and protocols were approved by Howard University Institutional Animal Care and Use Committee (IACUC). All experimental procedures were in accordance with the NIH Guidelines for the Care and Use of Laboratory Animals. BALB/cJ male mice (8 weeks old, 25–30 g) were purchased from Jackson Laboratory (Bar Harbor, ME, USA) and housed under pathogen-free conditions in HEPA-filtered cages and kept on a 12 h light/dark cycle. Compounds were administered to mice via intraperitoneal (i.p.) injection with maximum achievable doses of 30 mg/kg 1E7-03 (100 μl injection of 8 mM 1E7-03 in 80% DMSO/20% saline) and 100 mg/kg DP1-07 (100 μl injection of 100 mM DP1-07 in 40% propylene glycol/10% DMSO/50% saline). Blood samples were collected at different time points (15 min, 30 min, 1 hr, 3 hr, 6 hrs and 24 hrs) for each group (n=3 mice per group). For each sample, 20 μl of plasma was mixed with 80 μl cold acetone, and centrifuged at 13,000 rpm for 5 min. The supernatant was transferred to a clean test tube and dried in a SpeedVac concentrator. The residue was re-constituted in 50 μl of acetonitrile for LC-MS analysis. Calibration curves were prepared by spiking 1E7-03, DP1, DP3 and DP1-07 into the drug-free mouse plasma and subjected to similar sample extraction procedures. The plasma concentration–time profile of each analyte was constructed and pharmacokinetic parameters were determined by non-compartmental method using Phoenix WinNonlin Version 5.3 (Pharsight Corporation, Mountain View, CA).
A 10 μl aliquots from each sample were loaded to a LC-20AD nano HPLC system (Shimadzu Corporation, Columbia, MD, USA) coupled to LTQ XL Orbitrap mass spectrometer (Thermo Fisher Scientific) with the installed Xcalibur software (version 2.0.7, Thermo Fisher Scientific). Liquid chromatography was carried out on an in-house made nano-HPLC column (Polymicro Technologies Inc., Phoenix, AZ, USA) packed with reverse phase PolySulfoethyl A, 5μM, 200 Å (PolyLC Inc., Columbia, MD, USA). Mobile phase A was 0.1% formic acid in water and mobile phase B - 0.1% formic acid in acetonitrile. The elution was performed at a flow rate of 600 nl/min over 40 min using a multisegment linear gradient of mobile phase B as follows: 0–6.02 min, 1% B; 6.02–6.11 min, 1–2% B; 6.11–20 min, 2−80% B; 20–25 min, 80% B; 25–30 min, 80–85% B; 30–31 min, […]; 31–40 min, 2% B (v/v). The Orbitrap was operated under data-dependent acquisition mode. The spray voltage, capillary temperature and capillary voltage were set to 2.0 kV, 200 °C, and 39.5 V, respectively. Full-scan mass spectra were acquired in Orbitrap over 150−1500 m/z with a resolution of 30 000, followed by MS^n scans by CID activation mode. The precursor ions were fragmented with collision energy of 18 with activation Q of 0.25 and an activation time of 30 ms. Dynamic exclusion was enabled with a repeat count of 2, a repeat duration of 15 s, exclusion duration of 20 s, an exclusion list size of 50. The mass spectrometer was also operated in NL scan of m/z 18.01, 45.05, 71.03 and 72.02 and MRM mode. The MRM transitions were controlled by a segmented program in order to short the scan cycle and increase sensitivity.

For the next series, the system named is HIV-1 env and gag mRNA. The experiment in a line: HIV-1 env and gag mRNA expression by real-time RT-PCR in infected CEM T cells. It is filed as cell-based. The following applies: 10 μM 1E7-03, DP1, DP3; 5 μM AZT, 3TC; in words. Here is the method:
For quantitative analysis of HIV-1 RNA, CEM T cells were infected with HIV-1-LUC-G virus. Cells were treated with 10 μM 1E7-03, 10 μM DP1, 10 μM DP3, 5 μM AZT or 5 μM 3TC and control cells were untreated or treated with DMSO. Total RNA was isolated using Trizol Reagent (Invitrogen, Carlsbad, CA) according to the manufacturer's protocol. Total RNA (100 ng) was reverse transcribed to cDNA using Superscript™ RT-PCR kit (Invitrogen, Carlsbad, CA). Hexamers and oligo-dT were used as primers. For real-time PCR analysis, cDNA was amplified using Roche LightCycler 480 (Roche Diagnostics) and SYBR Green1 Master mix (Roche Diagnostics). PCR was run for 45 cycles and each cycle included denaturation at 95°C for 10 seconds, annealing at 60°C for 10 seconds, and extension at 72°C for 10 seconds. Quantification of env and gag was carried using 18S RNA as a normalization standard. Quantification of housekeeping genes, β-actin and RSP13 was carried relative to 18S RNA. Mean Cp values were determined and ΔΔCt method was used to calculate relative expression levels. Unpaired t-test was used to test statistical significance.
The following primer sequences were used: env, forward - […], reverse-[…]; gag, forward- […], reverse- […]; β-actin, forward- […], reverse-[…]; RSP13, forward- […], reverse- […]; and 18SrRNA, forward- […], reverse- […].
On the technique in general: Real-time PCR tracks product formation cycle by cycle.

T1 sequence (P62136 7-300): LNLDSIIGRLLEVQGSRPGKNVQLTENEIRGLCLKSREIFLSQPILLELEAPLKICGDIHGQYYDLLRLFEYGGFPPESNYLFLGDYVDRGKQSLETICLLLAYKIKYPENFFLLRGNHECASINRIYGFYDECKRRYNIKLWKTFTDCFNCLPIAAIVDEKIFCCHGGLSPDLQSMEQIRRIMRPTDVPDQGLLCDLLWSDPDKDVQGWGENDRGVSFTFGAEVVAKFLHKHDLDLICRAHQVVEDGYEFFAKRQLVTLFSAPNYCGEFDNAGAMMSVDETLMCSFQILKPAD

Consider `CC[C@H](C)[C@H](NC(=O)[C@H](Cc1ccccc1)NC(=O)[C@H](CS)NC(=O)[C@@H](NC(=O)[C@H](CCC(N)=O)NC(=O)[C@H](CS)NC(=O)[C@H](Cc1c[nH]cn1)NC(=O)[C@H](Cc1ccccc1)NC(=O)[C@H](CS)NC(=O)[C@H](CS)NC(=O)[C@H](CCCCN)NC(=O)[C@H](CCCCN)NC(=O)[C@H](CCCNC(=N)N)NC(=O)[C@H](CC(C)C)NC(=O)[C@@H]1CCCN1C(=O)[C@H](CO)NC(=O)[C@H](CO)NC(=O)[C@@H]1CCCN1C(=O)[C@H](Cc1ccccc1)NC(=O)[C@H](CCCCN)NC(=O)[C@H](Cc1ccc(O)cc1)NC(=O)[C@@H]1CCCN1C(=O)[C@H](COP(=O)(O)O)NC(=O)[C@H](CCCNC(=N)N)NC(=O)[C@@H]1CCCN1C(=O)[C@@H](NC(=O)[C@@H](N)Cc1c[nH]cn1)[C@@H](C)CC)C(C)C)C(=O)N[C@H](C(=O)N[C@@H](CCCCN)C(=O)O)[C@@H](C)O` [pRb-Tat, reference compound], for which the “times higher binding ability than 1E7-03, DP1 and DP3” value in series [1] was 20-40 times.
As usually defined, the AUC(0-t) is exposure summed from dosing to a finite time, without extrapolation to infinity. What is called MRT last is the average time that molecules of a dose stay in the body. A word on the half-life: it is how long it takes for the measured level to halve. Usually Cmax stands for the peak of the concentration-time curve. In general, Tmax refers to the time from dosing to the highest level. For the molecule `COc1ccc(/C=C2\CCCc3c2nc2ccccc2c3C(=O)OC(C)C(=O)O)cc1OC` (centres unmarked) [DP1-07P1], in series [2], the AUC(0-t) was determined as 124 µM·h, the MRT last stood at 10.5 h, the half-life was 13.4 h and the peak concentration (Cmax) is 7.54 µM. Also, the time to peak (Tmax) in series [2] was found to be 6 h.
Turning to `Nc1ccn([C@@H]2CS[C@H](CO)O2)c(=O)n1` [3TC, lamivudine, reference compound], in the series with HIV-1 env and gag mRNA, the “HIV-1 env mRNA expression” value is given as “strong inhibition” and the “HIV-1 gag mRNA expression” value is given as “strong inhibition”.
Consider “pRb-Tat mutant: mutant pRb-Tat peptide with QACA mutation in the RVxF motif (HIPRSPYKFPSSPLRKKCCFHCQACAITK) [reference compound]”, for which the results for the “PP1 WT KD (M)” value in series [1] and in series [1] (listed as mutant pRb-Tat) were “No binding” and “did not bind”, respectively.
As to `Cc1cn([C@H]2C[C@H](N=[N+]=[N-])[C@@H](CO)O2)c(=O)[nH]c1=O` [AZT, azidothymidine, reference compound], in the series on HIV-1 env and gag mRNA, the “HIV-1 env mRNA expression” value is “strong inhibition” and the “HIV-1 gag mRNA expression” value was “strong inhibition”.
For `COc1ccc(/C=C2\CCCc3c2nc2ccccc2c3C(=O)O)cc1OC` [DP1-07P2], in series [2], the AUC(0-t) came to 288 µM·h, the MRT last stood at 8.86 h, the half-life was 4.66 h and the highest concentration (Cmax) came to 23.7 µM. For the same molecule, in series [2], the Tmax is 6 h.

For the origin of these results see article PMC5652740, “Inhibition of HIV-1 infection in humanized mice and metabolic stability of protein phosphatase-1-targeting small molecule 1E7-03” (Oncotarget, 2017).
